Experimental data taken from PubChem BioAssay AID2060602 (Molecular Pharmacology Branch, DTP, NCI, 2025).

System: 648629-189-R-J1-PDC complex spheroids viability
Assay: Anticancer human tumor 648629-189-R-J1-PDC patient-derived bladder carcinoma cell line growth inhibition [CLK]
Conditions: for IC50: curve of first compound; for viability, T/C: stronger effect = lower value
Procedure, shortened: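 Patient-derived tumor cells grown as complex spheroids with HUVEC endothelial cells and mesenchymal stem cells, treated with drug combinations. Concentrations descend in half-log steps from near clinical Cmax, or from 10 microM if Cmax unknown.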

[1] = second compound 0.0316 µM, first compound 0.0316 µM
[2] = second compound 0.0316 µM, first compound 0.1 µM
[3] = second compound 0.0316 µM, first compound 0.316 µM
[4] = second compound 0.0316 µM, first compound 1 µM
[5] = second compound 0.1 µM, first compound 0.0316 µM
[6] = second compound 0.1 µM, first compound 0.1 µM
[7] = second compound 0.1 µM, first compound 0.316 µM
[8] = second compound 0.1 µM, first compound 1 µM
[9] = second compound 0.316 µM, first compound 0.0316 µM
[10] = second compound 0.316 µM, first compound 0.1 µM
[11] = second compound 0.316 µM, first compound 0.316 µM
[12] = second compound 0.316 µM, first compound 1 µM
[13] = second compound 1 µM, first compound 0.0316 µM
[14] = second compound 1 µM, first compound 0.1 µM
[15] = second compound 1 µM, first compound 0.316 µM
[16] = second compound 1 µM, first compound 1 µM
[17] = second compound 3.16 µM, first compound 0.0316 µM
[18] = second compound 3.16 µM, first compound 0.1 µM
[19] = second compound 3.16 µM, first compound 0.316 µM
[20] = second compound 3.16 µM, first compound 1 µM
[21] = second compound 10 µM, first compound 0.0316 µM
[22] = second compound 10 µM, first compound 0.1 µM
[23] = second compound 10 µM, first compound 0.316 µM
[24] = second compound 10 µM, first compound 1 µM
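Wherever viability, T/C is given: drug exposure lasted seven days before viability readout; 100% = DMSO vehicle control wells.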

With `CCCS(=O)(=O)Nc1ccc(F)c(C(=O)c2c[nH]c3ncc(-c4ccc(Cl)cc4)cc23)c1F` + CN1CCN(c2cc(C(=O)Nc3cc4cc(-c5cnn(C)c5)ccc4cn3)ccn2)CC1 the IC50 (second compound 0.0316 µM) was 7050 nM, the IC50 (second compound 0.1 µM) was 7250 nM and the IC50 (second compound 0.316 µM) was < 31.6 nM. For the same molecule, the IC50 (second compound 1 µM) was < 31.6 nM, the IC50 (second compound 3.16 µM) was < 31.6 nM and the IC50 (second compound 10 µM) was < 31.6 nM. For the same molecule, the viability, T/C [1] was 115%, the viability, T/C [2] was 104% and the viability, T/C [3] was 116%. It also gave a viability, T/C [4] of 110%, a viability, T/C (second compound 0.0316 µM, first compound 3.16 µM) of 126% and a viability, T/C (second compound 0.0316 µM, first compound 10 µM) of 21.8%. For the same molecule, the viability, T/C [5] was 110%, the viability, T/C [6] was 118% and the viability, T/C [7] was 105%. The viability, T/C [8] was 98.7%, the viability, T/C (second compound 0.1 µM, first compound 3.16 µM) was 104% and the viability, T/C (second compound 0.1 µM, first compound 10 µM) was 28.9%. It also gave a viability, T/C [9] of 37.6%, a viability, T/C [10] of 57.9% and a viability, T/C [11] of 55.4%. It also gave a viability, T/C [12] of 46.8%, a viability, T/C (second compound 0.316 µM, first compound 3.16 µM) of 44.1% and a viability, T/C (second compound 0.316 µM, first compound 10 µM) of 7.7%. For the same molecule, the viability, T/C [13] was 0.47%, the viability, T/C [14] was 0.46% and the viability, T/C [15] was 0.3%. The viability, T/C [16] was 0.39%, the viability, T/C (second compound 1 µM, first compound 3.16 µM) was 0.22% and the viability, T/C (second compound 1 µM, first compound 10 µM) was 0.86%. The viability, T/C [17] was 0.11%, the viability, T/C [18] was 0.67% and the viability, T/C [19] was 0.13%. For the same molecule, the viability, T/C [20] was 0.13%, the viability, T/C (second compound 3.16 µM, first compound 3.16 µM) was 0.14% and the viability, T/C (second compound 3.16 µM, first compound 10 µM) was 0.52%. For the same molecule, the viability, T/C [21] was 0.11%, the viability, T/C [22] was 0.13% and the viability, T/C [23] was 0.14%. For the same molecule, the viability, T/C [24] was 0.16%, the viability, T/C (second compound 10 µM, first compound 3.16 µM) was 0.15% and the viability, T/C (second compound 10 µM, first compound 10 µM) was 0.25%.

In the case of `CCN1CCN(Cc2ccc(Nc3ncc(F)c(-c4cc(F)c5nc(C)n(C(C)C)c5c4)n3)nc2)CC1` + CN1CCN(c2cc(C(=O)Nc3cc4cc(-c5cnn(C)c5)ccc4cn3)ccn2)CC1, the IC50 (second compound 0.0316 µM) is reported as > 1000 nM, the IC50 (second compound 0.1 µM) is reported as > 1000 nM and the IC50 (second compound 0.316 µM) is reported as < 3.16 nM. The IC50 (second compound 1 µM) was < 3.16 nM, the IC50 (second compound 3.16 µM) was < 3.16 nM and the IC50 (second compound 10 µM) was < 3.16 nM. It also gave a viability, T/C (second compound 0.0316 µM, first compound 0.00316 µM) of 108%, a viability, T/C (second compound 0.0316 µM, first compound 0.01 µM) of 101% and a viability, T/C [1] of 101%. It also gave a viability, T/C [2] of 127%, a viability, T/C [3] of 122% and a viability, T/C [4] of 123%. The viability, T/C (second compound 0.1 µM, first compound 0.00316 µM) was 104%, the viability, T/C (second compound 0.1 µM, first compound 0.01 µM) was 104% and the viability, T/C [5] was 102%. For the same molecule, the viability, T/C [6] was 101%, the viability, T/C [7] was 108% and the viability, T/C [8] was 101%. The viability, T/C (second compound 0.316 µM, first compound 0.00316 µM) was 37%, the viability, T/C (second compound 0.316 µM, first compound 0.01 µM) was 48.5% and the viability, T/C [9] was 41.7%. It also gave a viability, T/C [10] of 50.6%, a viability, T/C [11] of 47.3% and a viability, T/C [12] of 40.4%. For the same molecule, the viability, T/C (second compound 1 µM, first compound 0.00316 µM) was 0.42%, the viability, T/C (second compound 1 µM, first compound 0.01 µM) was 0.24% and the viability, T/C [13] was 0.61%. For the same molecule, the viability, T/C [14] was 0.35%, the viability, T/C [15] was 0.54% and the viability, T/C [16] was 0.32%. It also gave a viability, T/C (second compound 3.16 µM, first compound 0.00316 µM) of 0.14%, a viability, T/C (second compound 3.16 µM, first compound 0.01 µM) of 0.26% and a viability, T/C [17] of 0.49%. For the same molecule, the viability, T/C [18] was 0.15%, the viability, T/C [19] was 0.16% and the viability, T/C [20] was 0.16%. It also gave a viability, T/C (second compound 10 µM, first compound 0.00316 µM) of 0.21%, a viability, T/C (second compound 10 µM, first compound 0.01 µM) of 0.21% and a viability, T/C [21] of 0.17%. For the same molecule, the viability, T/C [22] was 0.16%, the viability, T/C [23] was 1.22% and the viability, T/C [24] was 1.51%.
